For data set [1] the following is noted: in vivo; cited from earlier work.
Data set [2] can be described thus: Pharmacokinetic profile following dry powder insufflation. The class given is in vivo, guinea pig. As to conditions: anaesthetized guinea pigs, dry powder insufflation of oxybutynin.
The conditions of data set [3]: cited from earlier work.
Data set [4] relates to receptors in the salivary glands. The following applies: cited from earlier work.
For data set [5], the system named is methacholine induced bronchoconstriction. Kind of data set: Methacholine induced bronchoconstriction after pulmonary (i.t.) dry powder delivery. The class given is in vivo, guinea pig. The text has this: Each bar represents the mean value and the vertical lines show s.e. mean.
(§1) Each point represents the mean value and the vertical bars show s.e. mean.

In data set [6] the test system is mean arterial blood pressure and heart rate. Kind of data set: Mean arterial blood pressure and heart rate after pulmonary delivery. The format is in vivo, guinea pig.
Source text: as §1

For data set [7] the following is noted: cited from earlier work. The source holds these as a separate data set.

Like-named read-outs stand apart in the source and are kept apart here.

By pKa is commonly meant the negative logarithm of the acid dissociation constant.

Regarding `CCC(=O)O[C@]1(C(=O)SCF)[C@H](C)C[C@H]2[C@@H]3C[C@H](F)C4=CC(=O)C=C[C@]4(C)[C@@]3(F)[C@@H](O)C[C@@]21C` [fluticasone propionate], the “Mean absorption time in the lungs” value in data set [1] was 5 to 7 h.
Regarding `CCNCC#CCOC(=O)C(O)(c1ccccc1)C1CCCCC1` (centres unmarked) [DEO, N-desethyloxybutynin], the “Systemic levels of DEO resulting from pulmonary delivery” value in data set [2] is listed as “below the LOQ of the detection method”. Moreover, the entries for the “Levels of DEO” value in data set [3] (oral therapy) and in data set [3] (transdermal therapy) were 10 to 40 ng/mL and roughly 3 ng/mL, respectively. Besides, the “DEO circulating concentration relative to parent compound” value is reported as “approximately 4 times” in data set [3] (oxybutynin ER, oral) and “approximately 10 times” in data set [3] (oxybutynin IR, oral). Besides, the “Affinity and binding duration at receptors in the salivary glands, compared with oxybutynin” value in data set [4] is “greater affinity and binding duration”.
With `CCN(CC)CC#CCOC(=O)C(O)(c1ccccc1)C1CCCCC1` (racemic) [oxybutynin, 4-diethylaminobut-2-butynyl phenylcyclohexyl-glycolate], the Oral half life in data set [3] (oral) is 2.5 h. For the same compound, the “Bronchoprotective effect in guinea pig model of bronchoconstriction” value in data set [5] is reported as “significantly bronchoprotective effect from 0.25 to 24 hours”. In addition, in data set [6] (guinea pig model of bronchoconstriction), the “Effect on arterial pressure and heart rate” value is “without a prolonged significant effect on arterial pressure and heart rate”. Also, the “Influence on cardiovascular conditions, compared with Tiotropium” value in data set [6] (oxybutynin xinafoate, pulmonary, first 6 hours, anaesthetized guinea pigs) was “did not have as significant an influence on cardiovascular conditions”. Moreover, in data set [7], the pKa is 8.24.
In the case of `O=C(O)c1ccc2ccccc2c1O` [xinafoic acid], in data set [7], the pKa was 2.7.
As to `CC1(C)O[C@@H]2C[C@H]3[C@@H]4CCC5=CC(=O)C=C[C@]5(C)[C@@]4(F)[C@@H](O)C[C@]3(C)[C@]2(C(=O)CO)O1` [triamcinolone acetonide], the “Mean absorption time in the lungs” value in data set [1] is 2.9 h.

The values are drawn from US9119777B2 (MICRODOSE THERAPEUTX, INC., priority 2008, dated 2015).
